Data: paper PMC4232510, “Identification of Functionally Important Residues of the Rat P2X4 Receptor by Alanine Scanning Mutagenesis of the Dorsal Fin and Left Flipper Domains” (PLoS ONE, 2014)
Residue numbers refer to the chain shown, from its start.

What was measured:
Assay in all cases: whole-cell patch clamp, HEK293T cells expressing mutant
Assay type in all cases: cell-based
rP2X4R R282A mutant = target: T1, rP2X4R R282A mutant (Rattus norvegicus, UniProt P51577, R282A); conditions: for relative responsiveness: 100 µM agonist 2 s, relative to ATP (100%)
T1 construct: expressed in transfected cells; host or cells: HEK293T
T1 sequence (P51577 1-388 R282A): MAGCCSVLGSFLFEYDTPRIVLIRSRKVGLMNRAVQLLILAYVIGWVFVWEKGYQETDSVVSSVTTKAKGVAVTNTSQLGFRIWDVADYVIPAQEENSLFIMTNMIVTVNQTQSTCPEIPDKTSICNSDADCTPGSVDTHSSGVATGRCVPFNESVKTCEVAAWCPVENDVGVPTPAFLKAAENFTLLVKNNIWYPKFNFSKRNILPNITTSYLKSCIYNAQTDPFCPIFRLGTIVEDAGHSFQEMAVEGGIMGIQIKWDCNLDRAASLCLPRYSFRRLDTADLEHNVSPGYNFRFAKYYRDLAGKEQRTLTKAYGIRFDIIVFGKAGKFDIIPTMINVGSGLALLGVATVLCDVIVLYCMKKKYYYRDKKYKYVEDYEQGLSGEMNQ

rP2X4R P290A mutant = target: T2, rP2X4R P290A mutant (Rattus norvegicus, UniProt P51577, P290A); conditions: for relative responsiveness: 100 µM agonist 2 s, relative to ATP (100%)
T2 construct: expressed in transfected cells; host or cells: HEK293T
T2 sequence (P51577 1-388 P290A): T1 sequence (P51577 1-388 R282A) with A282R, P290A

rP2X4R V288A mutant = target: T3, rP2X4R V288A mutant (Rattus norvegicus, UniProt P51577, V288A)
T3 construct: expressed in transfected cells; host or cells: HEK293T
T3 sequence (P51577 1-388 V288A): T1 sequence (P51577 1-388 R282A) with A282R, V288A

[1] = 3 µM IVM 4-6 min vs IVM-untreated
[2] = 100 µM ATP 60 s, biexponential fit
[3] = contribution of τdes2, 100 µM ATP 60 s
[4] = decay after removal of 1 or 3 µM ATP, 3 µM IVM
[5] = naïve receptors, 2–5 s application

With “2′(3′-O-(4-Benzoylbenzoyl)adenosine 5′-triphosphate [BzATP]” the relative responsiveness (rP2X4R R282A mutant) was 25.7±3.7% and the relative responsiveness (rP2X4R P290A mutant) was 16.9±3.2 %.
In the case of `CC[C@H](C)[C@H]1O[C@]2(CC[C@@H]1C)C[C@@H]1C[C@@H](C/C=C(\C)[C@@H](O[C@H]3C[C@H](OC)[C@@H](O[C@H]4C[C@H](OC)[C@@H](O)[C@H](C)O4)[C@H](C)O3)[C@@H](C)/C=C/C=C3\CO[C@@H]4[C@H](O)C(C)=C[C@@H](C(=O)O1)[C@]34O)O2` [IVM, ivermectin], the “Fold incr. Imax” value (rP2X4R V288A mutant; [1]) is reported as 2.3 ± 0.3 fold and the “Fold incr. Imax” value (rP2X4R P290A mutant; [1]) is reported as 3.7 ± 0.2 fold.
`CSc1nc(N)c2ncn([C@@H]3O[C@H](COP(=O)(O)OP(=O)(O)OP(=O)(O)O)[C@@H](O)[C@H]3O)c2n1` [2-MeS-ATP, 2-(Methylthio)adenosine 5′-triphosphate] showed a relative responsiveness (rP2X4R R282A mutant) of 55.1±12.9% and a relative responsiveness (rP2X4R P290A mutant) of 50.7±3.7%.
`Nc1ncnc2c1ncn2[C@@H]1O[C@H](CO[P@](=O)(O)O[P@](=O)(O)O[P@@](=O)(O)S)[C@@H](O)[C@H]1O` [ATPγS, Adenosine 5′-(γ-thio)triphosphate] showed a relative responsiveness (rP2X4R R282A mutant) of 45.5±5.2% and a relative responsiveness (rP2X4R P290A mutant) of 37.0±11.0%.
`Nc1ncnc2c1ncn2[C@@H]1O[C@H](COP(=O)(O)OP(=O)(O)OP(=O)(O)O)[C@@H](O)[C@H]1O` [ATP] was tested, and the τdes1 (rP2X4R V288A mutant; [2]) was 1.7 ± 0.3 s, the τdes2 (rP2X4R V288A mutant; [2]) was 9.3 ± 1.7 s and the Imax (rP2X4R V288A mutant; 100–1000 µM ATP) was 1.3 ± 0.2 nA. The “Imax+IVM” value (rP2X4R V288A mutant; ATP after 3 µM IVM 4-6 min) was 3.0 ± 0.7 nA, the “A2 /(A1+A2)” value (rP2X4R V288A mutant; [3]) was 72 ± 8% and the “τoff +IVM” value (rP2X4R V288A mutant; [4]) was 19 ± 2.0 s. For the same compound, the EC50 (rP2X4R V288A mutant; [5]) was 5.7 ± 3.1 µM, the τdes (rP2X4R V288A mutant; weighted, 100 µM ATP 60 s) was 7.5 ± 1.6 s and the “EC50 rightward shift compared to WT” value (rP2X4R R282A mutant) was “approximately 10 fold”. The τdes1 (rP2X4R R282A mutant; [2]) was 4.0 ± 0.3 s, the τdes2 (rP2X4R R282A mutant; [2]) was 14.7 ± 2.0 s and the Imax (rP2X4R R282A mutant; 100–1000 µM ATP) was 0.7 ± 0.1 nA. For the same compound, the “Imax+IVM” value (rP2X4R R282A mutant; ATP after 3 µM IVM 4-6 min) was 4.5 ± 0.5 nA, the “A2 /(A1+A2)” value (rP2X4R R282A mutant; [3]) was 64 ±14% and the “τoff +IVM” value (rP2X4R R282A mutant; [4]) was 7.0 ± 0.6 s. The EC50 (rP2X4R R282A mutant; [5]) was 23 ± 8 µM, the τdes (rP2X4R R282A mutant; weighted, 100 µM ATP 60 s) was 14 ± 1.0 s and the τdes1 (rP2X4R P290A mutant; [2]) was 0.8 ± 0.1 s. The τdes2 (rP2X4R P290A mutant; [2]) was 12.0 ± 1.5 s, the Imax (rP2X4R P290A mutant; 100–1000 µM ATP) was 0.9 ± 0.1 nA and the “Imax+IVM” value (rP2X4R P290A mutant; ATP after 3 µM IVM 4-6 min) was 3.3 ± 0.5 nA. For the same compound, the “A2 /(A1+A2)” value (rP2X4R P290A mutant; [3]) was 53 ± 3%, the “τoff +IVM” value (rP2X4R P290A mutant; [4]) was 13 ± 1.4 s and the EC50 (rP2X4R P290A mutant; [5]) was 8 ± 3.4 µM. The τdes (rP2X4R P290A mutant; weighted, 100 µM ATP 60 s) was 6.6 ± 0.5 s.
For `Nc1ncnc2c1ncn2C1OC(COP(=O)(O)CP(=O)(O)OP(=O)(O)O)C(O)C1O` (stereo not drawn) [α,β-meATP, α,β-methyleneadenosine 5′-triphosphate], the relative responsiveness (rP2X4R R282A mutant) was 27.3±7.9% and the relative responsiveness (rP2X4R P290A mutant) was 17.8±2.4 %.
